SMILES strings stand for the structures. Residues, ends and D or L forms follow the SMILES beside them. Some results are limits rather than exact numbers.

The species entered for this experiment is Rattus norvegicus. As to the kind of experiment: Relative biological activity in gastric contractile assay of rat (Relative activity is EC(peptide)/EC (compound 4) [EC contraction of each agonist to that of compound 4]). Type of experiment: functional, Stomach.
Molecule `CC(C)C[C@H](NC(=O)[C@H](CC(C)C)NC(=O)[C@H](Cc1ccccc1)NC(=O)[C@@H](N)CO)C(=O)N[C@@H](CCCN=C(N)N)C(N)=O` came in with a Relative activity of 1.
Next, `CC(C)C[C@@H]1NC(=O)[C@H](Cc2ccccc2)NC(=O)CNC(=O)[C@H](CCCN=C(N)N)NC(=O)[C@H](CC(C)C)NC1=O` (HELM PEPTIDE1{F.L.L.R.G}$PEPTIDE1,PEPTIDE1,1:R1-5:R2$$$V2.0): 390; `CC(C)C[C@@H]1NC(=O)[C@H](CC(C)C)NC(=O)[C@H](Cc2ccccc2)NC(=O)[C@@H](N)CCCCNC(=O)[C@H](CCCN=C(N)N)NC1=O` (HELM PEPTIDE1{K.F.L.L.R}$PEPTIDE1,PEPTIDE1,1:R3-5:R2$$$V2.0): 2.4.
Next, `CC(C)C[C@@H]1NC(=O)[C@H](Cc2ccccc2)NC(=O)CCCCCNC(=O)[C@H](CCCN=C(N)N)NC(=O)[C@H](CC(C)C)NC1=O` (single isomer, unassigned): more than 1000.

The values above are taken from ChEMBL document CHEMBL1129632, “Synthesis and contractile activities of cyclic thrombin receptor-derived peptide analogues with a Phe-Leu-Leu-Arg motif: importance of the Phe/Arg relative conformation and the primary amino group for activity” (1996).
